Source: US9828386B2 (priority 2013, dated 2017)
Read-outs that look alike come from different tables or passages of the source.

How the values were obtained:
Test in all cases: cells
Format in all cases: cell-based
A549 cell line = details: read-out: IC50 (μM) A549
Experimental: (§1) Test of compounds of embodiment of the present invention on inhibiting tumor cell activity
(§2) 3, cell lines: A549, BGC823, Hela cell line and normal human hepatocytes which are available from Wu Han boster Co., Ltd.;
(§3) A549, BGC823, Hela cell line and normal human hepatocytes in logarithmic growth phase are subjected to 1000 rpm centrifugation for 5 min, supernatant is then discarded, moderate medium is suspended, the cell concentration is adjusted to 3.5×10^4/well, the cells were seeded in 96-wells culture plate, and following experimental groups are set:
(§4) a negative control group; 35 test groups with same concentration (ie: groups of Compound (1) to Compound (35)); three control groups: groups of podophyllotoxin, 4′-demethylepipodophyllotoxin and etoposide.
(§5) Taking RPMI1640 containing 10% of calf serum as nutrient solution, 0.10 mL of cells per well is incubated under conditions of 37° C., 5% CO2 and saturated humidity for 24 h to nearly be covered, then the nutrient solution is discarded. […] 100 μl of DMSO is added to each well, then vibrated at 37° C. by shaker table for 30 min, then measuring absorbance (OD) at 492 nm, calculating MTT ratio=OD value of drug group/OD value of the negative control group.

BGC823 cell line = details: read-out: IC50 (μM) BGC823
Experimental: as §1, §2, §3, §4, §5

Hela cell line = details: read-out: IC50 (μM) Hela
Experimental: as §1, §2, §3, §4, §5

[1] = A549 cells, MTT, 48 h cultivation
[2] = BGC823 cells, MTT, 48 h cultivation
[3] = Hela cells, MTT, 48 h cultivation

IC50 (Hela cell line; Homo sapiens, Hela cells, MTT, 48 h cultivation) [µM] | Compound | IC50 (A549 cell line; [1]) [µM] | IC50 (BGC823 cell line; [2]) [µM] | IC50 (Hela cell line; [3]) [µM] | IC50 (A549 cell line; Homo sapiens, A549, 48 h) [µM] | IC50 (BGC823 cell line; Homo sapiens, BGC-823, 48 h) [µM] | IC50 (Hela cell line; Homo sapiens, HeLa, 48 h) [µM]
– | COc1cc(C2c3cc4c(cc3C(Sc3n[nH]c(N)n3)C3COC(=O)C23)OCO4)cc(OC)c1OC (stereo not drawn) [Compound 1, 4-S-(3-amino-1,2,4-triazole-5)-4-deoxy-podophyllotoxin] | 5.76 ± 0.34 | 0.83 ± 0.14 | 2.86 ± 0.34 | – | – | –
– | COc1cc(C2c3cc4c(cc3C(Sc3ccncc3)C3COC(=O)C23)OCO4)cc(OC)c1O (stereo not drawn) [Compound 25, 4-S-(pyridin-4)-4-deoxy-4′-demethylepipodophyllotoxin] | 2.66 ± 0.27 | 4.76 ± 0.12 | 0.73 ± 0.05 | – | – | –
– | 4-S-(5-methyl-1,2,4-triazole-3)-4-deoxy-4′-demethylepipodophyllotoxin [Compound 20] | 0.35 ± 0.37 | 0.21 ± 0.35 | 6.62 ± 0.35 | – | – | –
– | COc1cc(C2c3cc4c(cc3C(Sc3nc5ccccc5s3)C3COC(=O)C23)OCO4)cc(OC)c1O (stereo not drawn) [Compound 29, 4-S-(benzothiazol-2)-4-deoxy-4′-demethylepipodophyllotoxin] | 0.85 ± 0.93 | 1.37 ± 0.43 | 4.57 ± 0.16 | – | – | –
– | COc1cc(C2c3cc4c(cc3C(Sc3nnc(C)s3)C3COC(=O)C23)OCO4)cc(OC)c1O (stereo not drawn) [Compound 21, 4-S-(5-methyl-1,3,4-thiadiazol-2)-4-deoxy-4′-demethylepipodophyllotoxin] | 5.76 ± 0.18 | 0.83 ± 0.14 | 0.52 | – | – | –
– | COc1ccc(S(=O)(=O)Nc2n[nH]c(SC3c4cc5c(cc4C(c4cc(OC)c(OC)c(OC)c4)C4C(=O)OCC34)OCO5)n2)cc1 (stereo not drawn) [Compound 16, 4-S-[3-N-(4-methoxy-benzenesulfonamide-)-1,2,4-triazole-5-]-4-deoxy-podophyllotoxin] | 1.24 ± 0.33 | 0.67 ± 0.05 | 1.56 ± 0.05 | – | – | –
– | COc1cc([C@@H]2c3cc4c(cc3[C@H](O)[C@H]3COC(=O)[C@H]23)OCO4)cc(OC)c1OC [podophyllotoxin, reference compound] | – | – | – | 67.18 ± 0.24 | 75.81 ± 0.73 | 55.53 ± 0.24
– | COc1cc(C2c3cc4c(cc3C(Sc3nccc(N)n3)C3COC(=O)C23)OCO4)cc(OC)c1O (stereo not drawn) [Compound 27, 4-S-(4-amino-pyrimidine-2)-4-deoxy-4′-demethylepipodophyllotoxin] | 3.27 ± 0.17 | 0.22 ± 0.03 | 1.33 ± 0.39 | – | – | –
– | COc1ccc(S(=O)(=O)Nc2nnc(SC3c4cc5c(cc4C(c4cc(OC)c(O)c(OC)c4)C4C(=O)OCC34)OCO5)s2)cc1 (stereo not drawn) [Compound 35, 4-S-[2-N-(4-methoxy-benzenesulfonamide-)-1,3,4-thiadiazole-5-]-4-deoxy-4′-demethylepipodophyllotoxin] | 0.84 ± 0.62 | 2.23 ± 0.69 | 1.19 ± 0.57 | – | – | –
– | COc1cc(C2c3cc4c(cc3C(Sc3cccc(C)n3)C3COC(=O)C23)OCO4)cc(OC)c1O (stereo not drawn) [Compound 24, 4-S-(6-methyl-pyridin-2)-4-deoxy-4′-demethylepipodophyllotoxin] | 1.11 ± 0.94 | 4.01 ± 0.02 | 7.18 ± 0.07 | – | – | –
– | COc1ccc(S(=O)(=O)Nc2nc(SC3c4cc5c(cc4C(c4cc(OC)c(O)c(OC)c4)C4C(=O)OCC34)OCO5)n[nH]2)cc1 (stereo not drawn) [Compound 33, 4-S-[3-N-(4-methoxy-benzenesulfonamide-)-1,2,4-triazole-5-]-4-deoxy-4′-demethylepipodophyllotoxin] | 1.37 ± 2.15 | 1.27 ± 0.53 | 1.56 ± 0.88 | – | – | –
– | COc1cc(C2c3cc4c(cc3C(Sc3nc(C)cc(C)n3)C3COC(=O)C23)OCO4)cc(OC)c1OC (stereo not drawn) [Compound 11, 4-S-(4,6-dimethyl-pyrimidine-2)-4-deoxy-podophyllotoxin] | 3.31 ± 0.26 | 1.99 ± 0.34 | 0.11 ± 0.01 | – | – | –
– | COc1cc(C2c3cc4c(cc3C(Sc3ccccn3)C3COC(=O)C23)OCO4)cc(OC)c1O (stereo not drawn) [Compound 22, 4-S-(pyridin-2)-4-deoxy-4′-demethylepipodophyllotoxin] | 1.01 ± 0.38 | 0.27 ± 0.03 | 2.31 ± 0.31 | – | – | –
– | COc1cc(C2c3cc4c(cc3C(Sc3nc5ccccc5[nH]3)C3COC(=O)C23)OCO4)cc(OC)c1O (stereo not drawn) [Compound 30, 4-S-(benzimidazole-2)-4-deoxy-4′-demethylepipodophyllotoxin] | 1.24 ± 0.27 | 0.31 ± 0.16 | 0.51 ± 0.13 | – | – | –
– | COc1cc(C2c3cc4c(cc3C(Sc3nc(C)cc(C)n3)C3COC(=O)C23)OCO4)cc(OC)c1O (stereo not drawn) [Compound 28, 4-S-(4,6-dimethyl-pyrimidine-2)-4-deoxy-4′-demethylepipodophyllotoxin] | 1.27 ± 1.12 | 4.29 ± 0.83 | 5.26 ± 0.62 | – | – | –
– | COc1cc(C2c3cc4c(cc3C(Sc3nccc(N)n3)C3COC(=O)C23)OCO4)cc(OC)c1OC (stereo not drawn) [Compound 10, 4-S-(4-amino-pyrimidine-2)-4-deoxy-podophyllotoxin] | 4.65 ± 0.26 | 1.32 ± 0.15 | 1.85 ± 0.12 | – | – | –

IC50 (Hela cell line; Homo sapiens, Hela cells, MTT, 48 h cultivation) [µM] | Compound | IC50 (A549 cell line; [1]) [µM] | IC50 (BGC823 cell line; [2]) [µM] | IC50 (Hela cell line; [3]) [µM] | IC50 (A549 cell line; Homo sapiens, A549, 48 h) [µM] | IC50 (BGC823 cell line; Homo sapiens, BGC-823, 48 h) [µM] | IC50 (Hela cell line; Homo sapiens, HeLa, 48 h) [µM]
– | COc1cc(C2c3cc4c(cc3C(Sc3ncccc3C(=O)O)C3COC(=O)C23)OCO4)cc(OC)c1OC (stereo not drawn) [Compound 6, 4-S-(3-picolinate-2)-4-deoxy-podophyllotoxin] | 0.83 ± 0.25 | 2.65 ± 0.53 | 1.71 ± 0.07 | – | – | –
– | COc1cc(C2c3cc4c(cc3C(Sc3ncccn3)C3COC(=O)C23)OCO4)cc(OC)c1OC (stereo not drawn) [Compound 9, 4-S-(pyrimidine-2)-4-deoxy-podophyllotoxin] | 6.4 ± 0.38 | 0.71 ± 0.14 | 3.64 ± 0.46 | – | – | –
– | COc1cc(C2c3cc4c(cc3C(Sc3nc(N)n[nH]3)C3COC(=O)C23)OCO4)cc(OC)c1O (stereo not drawn) [Compound 19, 4-S-(3-amino-1,2,4-triazole-5)-4-deoxy-4′-demethylepipodophyllotoxin] | 0.93 ± 0.84 | 1.93 ± 1.67 | 1.51 ± 0.37 | – | – | –
– | COc1cc(C2c3cc4c(cc3C(Sc3nc(NS(=O)(=O)c5ccc(C)cc5)n[nH]3)C3COC(=O)C23)OCO4)cc(OC)c1OC (stereo not drawn) [Compound 15, 4-S-[3-N-(4-methyl-benzenesulfonamide-)-1,2,4-triazole-5-]-4-deoxy-podophyllotoxin] | 2.36 ± 0.23 | 1.69 ± 0.07 | 0.6 ± 0.08 | – | – | –
– | COc1cc(C2c3cc4c(cc3C(Sc3ccncc3)C3COC(=O)C23)OCO4)cc(OC)c1OC (stereo not drawn) [Compound 8, 4-S-(pyridin-4)-4-deoxy-podophyllotoxin] | 8.12 ± 0.09 | 1.52 ± 0.11 | 3.85 ± 0.14 | – | – | –
– | COc1cc(C2c3cc4c(cc3C(Sc3cccc(C)n3)C3COC(=O)C23)OCO4)cc(OC)c1OC (stereo not drawn) [Compound 7, 4-S-(6-methyl-pyridin-2)-4-deoxy-podophyllotoxin] | 1.12 ± 0.28 | 3.51 ± 0.14 | 0.9 ± 0.05 | – | – | –
– | COc1cc(C2c3cc4c(cc3C(Sc3nc5ccccc5o3)C3COC(=O)C23)OCO4)cc(OC)c1OC (stereo not drawn) [Compound 14, 4-S-(benzoxazole-2)-4-deoxy-podophyllotoxin] | 1.01 ± 0.14 | 0.21 ± 0.02 | 0.92 ± 0.08 | – | – | –
– | COc1cc(C2c3cc4c(cc3C(Sc3nnc(NS(=O)(=O)c5ccc(C)cc5)s3)C3COC(=O)C23)OCO4)cc(OC)c1O (stereo not drawn) [Compound 34, 4-S-[2-N-(4-methyl-benzenesulfonamide-)-1,3,4-thiadiazole-5-]-4-deoxy-4′-demethylepipodophyllotoxin] | 5.89 ± 0.74 | 0.85 ± 0.43 | 2.11 ± 0.34 | – | – | –
– | COc1cc(C2c3cc4c(cc3C(Sc3nc5ccccc5o3)C3COC(=O)C23)OCO4)cc(OC)c1O (stereo not drawn) [Compound 31, 4-S-(benzoxazole-2)-4-deoxy-4′-demethylepipodophyllotoxin] | 1.46 ± 0.89 | 1.36 ± 0.2 | 0.13 ± 0.01 | – | – | –
– | COc1cc(C2c3cc4c(cc3C(Sc3ncccn3)C3COC(=O)C23)OCO4)cc(OC)c1O (stereo not drawn) [Compound 26, 4-S-(pyrimidine-2)-4-deoxy-4′-demethylepipodophyllotoxin] | 4.28 ± 0.11 | 0.51 ± 0.53 | 0.25 ± 0.32 | – | – | –
– | COc1cc(C2c3cc4c(cc3C(Sc3n[nH]c(C)n3)C3COC(=O)C23)OCO4)cc(OC)c1OC (stereo not drawn) [Compound 2, 4-S-(5-methyl-1,2,4-triazole-3)-4-deoxy-podophyllotoxin] | 1.01 ± 0.28 | 0.27 ± 0.03 | 0.15 ± 0.03 | – | – | –
– | COc1cc(C2c3cc4c(cc3C(Sc3nnc(N)s3)C3COC(=O)C23)OCO4)cc(OC)c1OC (stereo not drawn) [Compound 3, 4-S-(2-amino-1,3,4-thiadiazole-5)-4-deoxy-podophyllotoxin] | 1.98 ± 2.54 | 0.71 ± 0.03 | 0.06 ± 0.01 | – | – | –
– | COc1cc(C2c3cc4c(cc3C(O)C3COC(=O)C23)OCO4)cc(OC)c1O (stereo not shown) [4′-demethylepipodophyllotoxins, 4′-demethylepipodophyllotoxin, reference compound] | 52.9 ± 0.85 | 63.09 ± 0.49 | 49.32 ± 0.38 | – | – | –
– | COc1cc(C2c3cc4c(cc3C(Sc3n[nH]c(NS(=O)(=O)c5ccc(C)cc5)n3)C3COC(=O)C23)OCO4)cc(OC)c1O (stereo not drawn) [Compound 32, 4-S-[3-N-(4-methyl-benzenesulfonamide-)-1,2,4-triazole-5-]-4-deoxy-4′-demethylepipodophyllotoxin] | 1.67 ± 0.28 | 0.67 ± 0.22 | 0.53 ± 0.17 | – | – | –
13.2 ± 1.65 | COc1cc([C@@H]2c3cc4c(cc3[C@@H](O[C@@H]3O[C@@H]5CO[C@@H](C)O[C@H]5[C@H](O)[C@H]3O)[C@H]3COC(=O)[C@H]23)OCO4)cc(OC)c1O [etoposide, reference compound] | – | – | – | – | – | –
